Test results as given in patent US5677419A, “Cyclic vasoactive peptide analogs” (Hoffmann-La Roche Inc., priority 1994, dated 1997).
Where a SMILES comes first, the peptide text is derived from it. Bridges are numbered along the chain shown (N, C = ends). [ ]: non-standard residue; d: D form. 1Nal = N[C@@H](Cc1cccc2ccccc12)C(=O)O; 2Nal = N[C@@H](Cc1ccc2ccccc2c1)C(=O)O; Nle = CCCC[C@H](N)C(=O)O; Orn = NCCC[C@H](N)C(=O)O

system: guinea pig tracheal smooth muscle; experiment: Tracheal relaxant activity of VIP analogs on isolated guinea pig tracheal rings; assay type: cell-based; settings: cumulative concentration response, relaxation as % of maximum response to VIP (10^-6 M=100%), three tissues pooled, linear regression
Description: The relaxant activity of the VIP analogs were studied in a model utilizing guinea pig trachea. [Wasserman, M. A. et al., in Vasoactive Intestinal Peptide, S. I. Said, ed., Raven Press, New York 1982, pp 177-184] All tissues were taken from male albino guinea pig weighing 400-600 g, anesthetized with urethane (2 g/kg, i.p.). After exanguination, the trachea were removed and divided into four ring segments (3 mm length). Each ring was suspended by 30 gauge stainless steel wires in a 10 mL jacketed tissue bath and attached via 4-0 silk thread to a GRASS force displacement transducer (model FT03C, Grass Instruments Co., Quincy, Mass.), for isometric recording of tension. The smooth muscle was bathed in modified Krebs solution of the following composition: NaCl, 120 mM; KCl, 4.7 mM; CaCl2, 2.5 mM; MgSO4.7H2 O, 1.2 mM; NaHCO3, 25 mM; K2 HPO4 monobasic, 1.2 mM; and dextrose, 10 mM. Tissue baths were maintained at 37° C. and constantly bubbled with 95% O2 and 5% CO2. Responses were recorded on an 8 channel and a 4 channel HEWLETT-PACKARD (model 7702B and 7754A, respectively) recorder (Hewlett- Packard, Paramus, N.J.). Tracheal rings were placed under a resting tension of 1.5 g which was determined to be at or near optimal in preliminary experiments. Frequent readjustments of tension were required during the 60 minute stabilization period which followed. Tissues were rinsed at 15 minute intervals.
Cumulative concentration response curves were obtained for each tissue by successive […] increases in the bath concentration of VIP or VIP analogs according to the method of VanRossum [Arch. Int. Pharmacodyn., 143, 299-330 (1963)]. Only one cumulative dose response curve was obtained on a single tissue. To minimize variability between tissues, relaxant responses were expressed as a percentage of the maximum response obtained to VIP (10^-6 M=100%) added at the end of each concentration response experiment. Responses obtained from three tissues were pooled and EC50 values were determined by linear regression.
The results summarized in Table I show the tracheal relaxant activity of the VIP analogs in comparison to native VIP.

| EC50 [nM] | SMILES |
| --- | --- |
| 34 | CCCC[C@H](NC(=O)[C@H](CCC(N)=O)NC(=O)[C@H](CCCCN)NC(=O)[C@H](CCCNC(=N)N)NC(=O)[C@H](CC(C)C)NC(=O)[C@@H]1CCCCNC(=O)CC[C@H](NC(=O)[C@@H](NC(=O)[C@H](Cc2ccccc2)NC(=O)[C@@H](NC(=O)[C@H](C)NC(=O)[C@H](CC(=O)O)NC(=O)[C@H](CO)NC(=O)[C@H](Cc2c[nH]cn2)NC(C)=O)C(C)C)[C@@H](C)O)C(=O)N[C@@H](CC(N)=O)C(=O)N[C@@H](Cc2ccc(O)cc2)C(=O)N[C@@H]([C@@H](C)O)C(=O)N1)C(=O)N[C@@H](C)C(=O)N[C@H](C(=O)N[C@@H](CCCCN)C(=O)N[C@@H](CCCCN)C(=O)N[C@@H](Cc1ccc(O)cc1)C(=O)N[C@@H](CC(C)C)C(=O)N[C@@H](CC(N)=O)C(=O)N[C@@H](CO)C(=O)N[C@H](C(=O)N[C@@H](CC(C)C)C(=O)N[C@H](C(N)=O)[C@@H](C)O)C(C)C)C(C)C [SEQ ID NO:21, Ac-[Glu^8,Lys^12,Nle^17,Val^26,Thr^28]-VIP cyclo (Glu^8 →Lys^12)] (Ac-HSDAVFTENYTKLRKQ[Nle]AVKKYLNSVLT-NH2; lactam 8-12) |
| 0.84 | CCCC[C@H](NC(=O)[C@H](CCC(N)=O)NC(=O)[C@H](CCCCN)NC(=O)[C@H](CCCNC(=N)N)NC(=O)[C@H](CC(C)C)NC(=O)[C@H](CC(C)C)NC(=O)[C@@H](NC(=O)[C@H](Cc1ccc(OC)cc1)NC(=O)[C@H](CC(N)=O)NC(=O)[C@H](CC(=O)O)NC(=O)[C@@H](NC(=O)[C@H](Cc1ccccc1)NC(=O)[C@@H](NC(=O)[C@H](C)NC(=O)[C@H](CC(=O)O)NC(=O)[C@H](CO)NC(=O)[C@H](Cc1c[nH]cn1)NC(C)=O)C(C)C)[C@@H](C)O)[C@@H](C)O)C(=O)N[C@@H](C)C(=O)N[C@@H](C)C(=O)N[C@@H](CCCCN)C(=O)N[C@H]1CCCCNC(=O)C[C@@H](C(=O)N[C@H](C(=O)N[C@@H](CC(C)C)C(=O)N[C@H](C(N)=O)[C@@H](C)O)C(C)C)NC(=O)[C@H](CC(N)=O)NC(=O)[C@H](CC(C)C)NC(=O)[C@H](Cc2ccc(O)cc2)NC1=O [SEQ ID NO:36, Ac-[O-Me-Tyr^10,Leu^12,Nle^17,Ala^19,Asp^25,Val^26,Thr^28]-VIP cyclo (Lys^21 →Asp^25)] (Ac-HSDAVFTDNY(Me)TLLRKQ[Nle]AAKKYLNDVLT-NH2; lactam 21-25) |
| 2.9 | CCCC[C@H](NC(=O)[C@H](CCC(N)=O)NC(=O)[C@H](CCCCN)NC(=O)[C@H](CCCNC(=N)N)NC(=O)[C@H](CC(C)C)NC(=O)[C@H](CCCCN)NC(=O)[C@@H](NC(=O)[C@H](Cc1ccc(O)cc1)NC(=O)[C@H](CC(N)=O)NC(=O)[C@H](CC(=O)O)NC(=O)[C@@H](NC(=O)[C@H](Cc1cccc2ccccc12)NC(=O)[C@@H](NC(=O)[C@H](C)NC(=O)[C@H](CC(=O)O)NC(=O)[C@H](CO)NC(=O)[C@H](Cc1c[nH]cn1)NC(C)=O)C(C)C)[C@@H](C)O)[C@@H](C)O)C(=O)N[C@@H](C)C(=O)N[C@@H](C)C(=O)N[C@@H](CCCCN)C(=O)N[C@H]1CCCCNC(=O)C[C@@H](C(=O)N[C@H](C(=O)N[C@@H](CC(C)C)C(=O)N[C@H](C(N)=O)[C@@H](C)O)C(C)C)NC(=O)[C@H](CC(N)=O)NC(=O)[C@H](CC(C)C)NC(=O)[C@H](Cc2ccc(O)cc2)NC1=O [SEQ ID NO:50, Ac-[1-Nal^6,Lys^12,Nle^17,Ala^19,Asp^25,Val^26,Thr^28]-VIP cyclo (Lys^21 →Asp^25)] (Ac-HSDAV[1Nal]TDNYTKLRKQ[Nle]AAKKYLNDVLT-NH2; lactam 21-25) |
| 40 | CCCC[C@H](NC(=O)[C@H](CCC(N)=O)NC(=O)[C@H](CCCCN)NC(=O)[C@H](CCCNC(=N)N)NC(=O)[C@H](CC(C)C)NC(=O)[C@@H]1CCCNC(=O)C[C@H](NC(=O)[C@@H](NC(=O)[C@H](Cc2ccccc2)NC(=O)[C@@H](NC(=O)[C@H](C)NC(=O)[C@H](CC(=O)O)NC(=O)[C@H](CO)NC(=O)[C@H](Cc2c[nH]cn2)NC(C)=O)C(C)C)[C@@H](C)O)C(=O)N[C@@H](CC(N)=O)C(=O)N[C@@H](Cc2ccc(O)cc2)C(=O)N[C@@H]([C@@H](C)O)C(=O)N1)C(=O)N[C@@H](C)C(=O)N[C@H](C(=O)N[C@@H](CCCCN)C(=O)N[C@@H](CCCCN)C(=O)N[C@@H](Cc1ccc(O)cc1)C(=O)N[C@@H](CC(C)C)C(=O)N[C@@H](CC(N)=O)C(=O)N[C@@H](CO)C(=O)N[C@H](C(=O)N[C@@H](CC(C)C)C(=O)N[C@H](C(N)=O)[C@@H](C)O)C(C)C)C(C)C [SEQ ID NO:23, Ac-[Orn^12,Nle^17,Val^26,Thr^28]-VIP cyclo (Asp^8 →Orn^12)] (Ac-HSDAVFTDNYT[Orn]LRKQ[Nle]AVKKYLNSVLT-NH2; lactam 8-12) |
| 4.2 | CCCC[C@H](NC(=O)[C@H](CCC(N)=O)NC(=O)[C@H](CCCCN)NC(=O)[C@H](CCCNC(=N)N)NC(=O)[C@H](CC(C)C)NC(=O)[C@H](CC(C)C)NC(=O)[C@@H](NC(=O)[C@H](Cc1ccc2ccccc2c1)NC(=O)[C@H](CC(N)=O)NC(=O)[C@H](CC(=O)O)NC(=O)[C@@H](NC(=O)[C@H](Cc1ccccc1)NC(=O)[C@@H](NC(=O)[C@H](C)NC(=O)[C@H](CC(=O)O)NC(=O)[C@H](CO)NC(=O)[C@H](Cc1c[nH]cn1)NC(C)=O)C(C)C)[C@@H](C)O)[C@@H](C)O)C(=O)N[C@@H](C)C(=O)N[C@@H](C)C(=O)N[C@@H](CCCCN)C(=O)N[C@H]1CCCCNC(=O)C[C@@H](C(=O)N[C@H](C(=O)N[C@@H](CC(C)C)C(=O)N[C@H](C(N)=O)[C@@H](C)O)C(C)C)NC(=O)[C@H](CC(N)=O)NC(=O)[C@H](CC(C)C)NC(=O)[C@H](Cc2ccc(O)cc2)NC1=O [SEQ ID NO:35, Ac-[2-Nal^10,Leu^12,Nle^17,Ala^19,Asp^25,Val^26,Thr^28]-VIP cyclo (Lys^21 →Asp^25)] (Ac-HSDAVFTDN[2Nal]TLLRKQ[Nle]AAKKYLNDVLT-NH2; lactam 21-25) |
| 2.6 | CCCC[C@H](NC(=O)[C@H](CCC(N)=O)NC(=O)[C@H](CCCCN)NC(=O)[C@H](CCCNC(=N)N)NC(=O)[C@H](CC(C)C)NC(=O)[C@H](CCCCN)NC(=O)[C@@H](NC(=O)[C@H](Cc1ccc(OC)cc1)NC(=O)[C@H](CC(N)=O)NC(=O)[C@H](CC(=O)O)NC(=O)[C@@H](NC(=O)[C@H](Cc1ccccc1)NC(=O)[C@@H](NC(=O)[C@H](C)NC(=O)[C@H](CC(=O)O)NC(=O)[C@H](CO)NC(=O)[C@H](Cc1c[nH]cn1)NC(C)=O)C(C)C)[C@@H](C)O)[C@@H](C)O)C(=O)N[C@@H](C)C(=O)N[C@@H](C)C(=O)N[C@@H](CCCCN)C(=O)N[C@H]1CCCCNC(=O)C[C@@H](C(=O)N[C@H](C(=O)N[C@@H](CC(C)C)C(=O)N[C@H](C(N)=O)[C@@H](C)O)C(C)C)NC(=O)[C@H](CC(N)=O)NC(=O)[C@H](CC(C)C)NC(=O)[C@H](Cc2ccc(O)cc2)NC1=O [SEQ ID NO:41, Ac-[O-Me-Tyr^10,Lys^12,Nle^17,Ala^19,Asp^25,Val^26,Thr^28]-VIP cyclo (Lys^21 →Asp^25)] (Ac-HSDAVFTDNY(Me)TKLRKQ[Nle]AAKKYLNDVLT-NH2; lactam 21-25) |
| 38 | CCCC[C@H](NC(=O)[C@H](CCC(N)=O)NC(=O)[C@H](CCCCN)NC(=O)[C@H](CCCNC(=N)N)NC(=O)[C@H](CC(C)C)NC(=O)[C@@H]1CC(=O)NCCCC[C@H](NC(=O)[C@@H](NC(=O)[C@H](Cc2ccccc2)NC(=O)[C@@H](NC(=O)[C@H](C)NC(=O)[C@H](CC(=O)O)NC(=O)[C@H](CO)NC(=O)[C@H](Cc2c[nH]cn2)NC(C)=O)C(C)C)[C@@H](C)O)C(=O)N[C@@H](CC(N)=O)C(=O)N[C@@H](Cc2ccc(O)cc2)C(=O)N[C@@H]([C@@H](C)O)C(=O)N1)C(=O)N[C@@H](C)C(=O)N[C@H](C(=O)N[C@@H](CCCCN)C(=O)N[C@@H](CCCCN)C(=O)N[C@@H](Cc1ccc(O)cc1)C(=O)N[C@@H](CC(C)C)C(=O)N[C@@H](CC(N)=O)C(=O)N[C@@H](CO)C(=O)N[C@H](C(=O)N[C@@H](CC(C)C)C(=O)N[C@H](C(N)=O)[C@@H](C)O)C(C)C)C(C)C [SEQ ID NO:24, Ac-[Lys^8,Asp^12,Nle^17,Val^26,Thr^28]-VIP cyclo (Lys^8 →Asp^12)] (Ac-HSDAVFTKNYTDLRKQ[Nle]AVKKYLNSVLT-NH2; lactam 8-12) |
| 17 | CCCC[C@H](NC(=O)[C@H](CCC(N)=O)NC(=O)[C@H](CCCCN)NC(=O)[C@H](CCCNC(=N)N)NC(=O)[C@H](CC(C)C)NC(=O)[C@@H]1CCCCNC(=O)C[C@H](NC(=O)[C@H](CC(N)=O)NC(=O)[C@@H](NC(=O)[C@H](Cc2ccccc2)NC(=O)[C@@H](NC(=O)[C@H](C)NC(=O)[C@H](CC(=O)O)NC(=O)[C@H](CO)NC(=O)[C@H](Cc2c[nH]cn2)NC(C)=O)C(C)C)[C@@H](C)O)C(=O)N[C@@H](Cc2ccc(O)cc2)C(=O)N[C@@H]([C@@H](C)O)C(=O)N1)C(=O)N[C@@H](C)C(=O)N[C@H](C(=O)N[C@@H](CCCCN)C(=O)N[C@@H](CCCCN)C(=O)N[C@@H](Cc1ccc(O)cc1)C(=O)N[C@@H](CC(C)C)C(=O)N[C@@H](CC(N)=O)C(=O)N[C@@H](CO)C(=O)N[C@H](C(=O)N[C@@H](CC(C)C)C(=O)N[C@H](C(N)=O)[C@@H](C)O)C(C)C)C(C)C [SEQ ID NO:22, Ac-[Asn^8,Asp^9,Lys^12,Nle^17,Val^26,Thr^28]-VIP cyclo (Asp^9 →Lys^12)] (Ac-HSDAVFTNDYTKLRKQ[Nle]AVKKYLNSVLT-NH2; lactam 9-12) |
